From US8809395B2, “Methods for making valerenic acid derivatives and their use” (Valericon GmbH, priority 2009, dated 2014)

Experiments:
c57B1/6N mice = assay: Seizure threshold by pentylenetetrazole (PTZ) tail-vein infusion; type: in vivo; settings: for seizure threshold: intraperitoneally, 30 min prior to test
Procedure: Seizure threshold was determined by pentylenetetrazole (PTZ) tail-vein infusion at a rate of 100 μl/min ([…] PTZ in saline, pH 7.4) on freely moving animals. 30 min prior to test c57B1/6N mice were intraperitoneally injected with either saline (=control group), VA or VA derivatives at the indicated concentrations. […] Animals were immediately anaesthetized using increasing carbon dioxide concentrations and killed by cervical displacement. The seizure threshold dose was calculated from the infused volume in relation to body weight. Results from tail-vein infusion were verified by intraperitoneal injection of a fixed dose of 30 mg PTZ/kg body weight. Animals were observed and video-tracked for 20 min after treatment.

[1] = target: T1, GABAA channels composed of α1β3 subunits (Rattus norvegicus, UniProt P62813+P63079); assay: Modulation of IGABA, two-microelectrode voltage-clamp on recombinant GABAA receptors expressed in Xenopus laevis oocytes; type: cell-based; settings: for EC50 / Hill-Coefficient (nH): GABA EC3-5; for Emax: GABA EC3-5, read-out: Maximum stimulation of IGABA (EC3-5)
T1 construct: expressed in transfected cells; host or cells: Xenopus laevis oocytes injected with cRNA transcribed from cDNA in pCMV vector
Procedure: Preparation of stage V-VI oocytes from Xenopus laevis and synthesis of capped off run-off poly(A^+) cRNA transcripts from linearized cDNA templates (pCMV vector) were performed as described (Khom et al. 2006). Briefly, female Xenopus laevis (NASCO, USA) were anaesthetised by exposing them for 15 minutes to a 0.2% solution of MS-222 (methane sulfonate salt of 3-aminobenzoic acid ethyl ester; Sandoz) before surgically removing parts of the ovaries. Follicle membranes from isolated oocytes were enzymatically digested with 2 mg/ml collagenase (Type 1A, Sigma). One day after isolation, the oocytes were injected with about 10-50 nl of DEPC-treated water (diethyl pyrocarbonate, Sigma, Germany) containing the different cRNAs at a concentration of approximately 300-3000 pg/nl/subunit. The amount of cRNA was determined by means of a Nanoprop ND-1000 (Kisker-biotech, Steinfurt, Germany).
cRNAs were mixed in a ratio of 1:1 for the expression of α1β3 receptors. Oocytes were stored at 18° C. in ND96 solution (Methfessel et al., 1986). Electrophysiological experiments were done using the two-microelectrode voltage-clamp method at a holding potential of −70 mV making use of a TURBO TEC 01C amplifier (npi electronic, Tamm, Germany) and an Axon Digidata 1322A interface (Molecular Devices, Sunnyvale, Calif.). Data acquisition was carried out using pCLAMP v.9.2. The bath solution contained 90 mM NaCl, 1 mM KCl, 1 mM MgCl2.6H2O, 1 mM CaCl2 and 5 mM HEPES (pH 7.4). Microelectrodes were filled with 2M KCl and had resistances between 1 and 3 MΩ (Khom et al., 2007).
GABA and valerenic acid derivatives, respectively, were applied by means of fast perfusion system (see Baburin et al. 2006 for details; Khom et al. 2006). Drug or control solutions were applied by means of a TECAN Miniprep 60 permitting automation of the experiments. To elicit IGABA the chamber was perfused with 120 μl of GABA-containing solution at a rate of between 300 and 1000 μl/s. The IGABA rise time was in the range of between 100 and 250 ms (see Khom et al. 2006). Care was taken to account for possible slow recovery from increasing levels of desensitization in the presence of high GABA, valerenic acid and derivatives concentrations. Oocytes with maximal current amplitudes >3 μA were discarded to exclude voltage-clamp errors (Khom et al., 2006; Baburin et al., 2006; Khom et al., 2007).
Stimulation of chloride currents by modulators of the GABAA receptor was measured at a GABA concentration eliciting between 3% and 5% of the maximal current amplitude (EC3-5). The EC3-5 was determined at the beginning of each experiment. Enhancement of the chloride current was defined as (I(GABA+Comp)/IGABA)−1, where I(GABA+Comp) is the current response in the presence of a given compound (valerenic acid or derivative) and IGABA is the control GABA current. To measure the sensitivity of the GABAA receptor for a given compound, the compound was applied for an equilibration period of 1 minute before applying GABA (EC3-5). Concentration-response curves were generated and the data were fitted by non-linear regression analysis using Origin software (OriginLab Corporation, USA). Data were fitted to the equation:
[formula] where nH is the Hill coefficient. Each data point represents the mean±S.E. from at least 4 oocytes and 2 oocyte batches. Statistical significance was calculated using the paired Student t-test with a confidence interval of p<0.05 (Khom et al., 2007). 4.2.2. Modulation of IGABA by VA Derivatives
Furthermore, the modulation of IGABA by VA derivatives was investigated at a GABA EC3-5 concentration in a system as outlined under 4.2.1, i.e. on recombinant GABAA receptors expressed in Xenopus laevis oocytes. Thus, modulation of IGABA by VA derivatives was studied on GABAA channels composed of α1β3 subunits.

mice (C57B1/6N) = assay: Mouse Elevated Plus Maze (EPM) test; type: in vivo; settings: 3 mg/kg BW, injected 30 min prior to testing, assessed over 5 minutes
Procedure: Male mice (C57B1/6N) were obtained from Charles River Laboratories (Germany). For breeding and maintenance mice were housed in groups with free access to food and water.
Temperature was fixed to 23±1C and 60% humidity with a 12 h light-dark cycle (lights on 0700-1900 hours). Age and testing experience matched male mice at 3-8 months for all experiments. All procedures involving animals were approved by the Austrian Animal Experimentation Ethics Board in compliance with the European convention for the protection of vertebrate animals used for experimental and other scientific purposes ETS no.: 123.
Mice were transferred to the testing facility 24 h before commencement of experiments. Tests were performed between 0900 and 1300 hours. All tests were video monitored and evaluated by an experimenter blinded to the administered compound. […]
Behaviour was tested over 5 minutes on an elevated plus maze (1 meter above ground) consisting of two closed and two open arms, each 50 cm×5 cm in size. […] Analysis of open and closed arm entries and time on open arm was automatically recorded using Video-Mot 2 equipment and software (Wittmann et al., 2008). […]

T1 sequence (P62813 28-455): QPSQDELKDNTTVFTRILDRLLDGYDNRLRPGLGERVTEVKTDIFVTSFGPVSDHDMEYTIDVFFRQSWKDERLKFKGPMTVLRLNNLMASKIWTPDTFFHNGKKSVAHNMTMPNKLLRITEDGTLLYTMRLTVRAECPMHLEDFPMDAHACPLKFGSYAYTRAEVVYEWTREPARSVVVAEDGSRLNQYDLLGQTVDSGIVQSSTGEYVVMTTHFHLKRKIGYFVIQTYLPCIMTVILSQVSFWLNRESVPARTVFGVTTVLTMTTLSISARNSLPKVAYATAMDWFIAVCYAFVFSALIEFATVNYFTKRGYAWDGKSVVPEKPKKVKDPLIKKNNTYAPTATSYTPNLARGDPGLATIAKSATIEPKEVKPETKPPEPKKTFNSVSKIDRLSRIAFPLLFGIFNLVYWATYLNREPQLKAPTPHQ
T1 sequence (P63079 26-473): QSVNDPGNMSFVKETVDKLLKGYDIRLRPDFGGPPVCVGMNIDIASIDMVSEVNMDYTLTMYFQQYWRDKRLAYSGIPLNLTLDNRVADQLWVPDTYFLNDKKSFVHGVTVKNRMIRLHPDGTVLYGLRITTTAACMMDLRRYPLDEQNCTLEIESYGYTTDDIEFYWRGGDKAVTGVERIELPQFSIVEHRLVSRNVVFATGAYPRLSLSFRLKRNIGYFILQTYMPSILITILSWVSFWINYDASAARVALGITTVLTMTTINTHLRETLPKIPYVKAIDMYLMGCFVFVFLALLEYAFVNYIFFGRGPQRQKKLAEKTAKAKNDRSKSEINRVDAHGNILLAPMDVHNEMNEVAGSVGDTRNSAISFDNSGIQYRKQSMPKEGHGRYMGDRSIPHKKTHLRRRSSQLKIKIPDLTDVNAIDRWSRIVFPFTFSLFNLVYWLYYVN

SMILES	EC50 [1] [µM]	Hill-Coefficient (nH) [1]	Emax [1] [%]	anticonvulsant effects (in words) (c57B1/6N mice; 30 mg/kg bodyweight)	other results
CC1=C2[C@H](/C=C(\C)C(N)=O)CC[C@@H](C)[C@H]2CC1 [VA-A, (E)-3-((4S,7R,7aR)-3,7-dimethyl-2,4,5,6,7,7a-hexahydro-1H-inden-4-yl)-2-methylacrylamide]	13.7 ± 2.3	1.6 ± 0.2	–	–	anticonvulsant effect compared among tested substances (c57B1/6N mice; 3 mg/kg bodyweight): most pronounced; seizure threshold (c57B1/6N mice; 3 mg/kg bodyweight): 58.6±3.7 mg PTZ/kg; time spent in the open arms of the EPM, % of total time in the test (mice (C57B1/6N)): 52.1±3.9%
CC1=C2[C@H](/C=C(\C)C(=O)NC(C)C)CC[C@@H](C)[C@H]2CC1 [VA-IPA, (E)-3-((4S,7R,7aR)-3,7-dimethyl-2,4,5,6,7,7a-hexahydro-1H-inden-4-yl)-N-isopropyl-2-methylacrylamide]	22.5 ± 6	1.5 ± 0.3	506 ± 76	–	–
CCCCNC(=O)/C(C)=C/[C@@H]1CC[C@@H](C)[C@H]2CCC(C)=C12 [VA-BA, (E)-N-butyl-3-((4S,7R,7aR)-3,7-dimethyl-2,4,5,6,7,7a-hexahydro-1H-inden-4-yl)-2-methylacrylamide]	18.8 ± 6.9	1.1 ± 0.2	569 ± 57	–	–
CC1=C2[C@H](/C=C(\C)C(=O)N3CCOCC3)CC[C@@H](C)[C@H]2CC1 [VA-MO, (E)-3-((4S,7R,7aR)-3,7-dimethyl-2,4,5,6,7,7a-hexahydro-1H-inden-4-yl)-2-methyl-1-morpholinoprop-2-en-1-one]	64.2 ± 13.8	1.6 ± 0.2	–	–	–
CNC(=O)/C(C)=C/[C@@H]1CC[C@@H](C)[C@H]2CCC(C)=C12 [VA-MA, (E)-3-((4S,7R,7aR)-3,7-dimethyl-2,4,5,6,7,7a-hexahydro-1H-inden-4-yl)-N,2-dimethylacrylamide]	26.3 ± 6.6	1.4 ± 0.1	–	significantly increased	anticonvulsant effect compared among tested substances (c57B1/6N mice; 30 mg/kg bodyweight): strongest anticonvulsant effect
CC1=C2[C@H](/C=C(\C)C(=O)O)CC[C@@H](C)[C@H]2CC1 [VA, (E)-3-[(4S,7R,7aR)-3,7-dimethyl-2,4,5,6,7,7a-hexahydro-1H-inden-4-yl]-2-methylprop-2-enoic acid, reference compound]	–	–	–	–	seizure threshold (c57B1/6N mice; 3 mg/kg bodyweight): 47.7±2.7 mg PTZ/kg; seizure threshold (in words) (c57B1/6N mice; concentrations ≧3 mg/kg bodyweight, vs. saline): significantly increased
CCN(CC)C(=O)/C(C)=C/[C@@H]1CC[C@@H](C)[C@H]2CCC(C)=C12 [VA-DEA, (E)-3-((4S,7R,7aR)-3,7-dimethyl-2,4,5,6,7,7a-hexahydro-1H-inden-4-yl)-N,N-diethyl-2-methylacrylamide]	23.7 ± 6.3	1.4 ± 0.1	901 ± 120	significantly increased	–
CC1=C2[C@H](/C=C(\C)C(=O)N3CCCCC3)CC[C@@H](C)[C@H]2CC1 [VA-PIP, (E)-3-((4S,7R,7aR)-3,7-dimethyl-2,4,5,6,7,7a-hexahydro-1H-inden-4-yl)-2-methyl-1-(piperidin-1-yl)prop-2-en-1-one]	54.6 ± 17	1.6 ± 0.3	–	–	–
CC1=C2[C@H](/C=C(\C)C(=O)N(C)C)CC[C@@H](C)[C@H]2CC1 [VA-DMA, (E)-3-((4S,7R,7aR)-3,7-dimethyl-2,4,5,6,7,7a-hexahydro-1H-inden-4-yl)-N,N,2-trimethylacrylamide]	28.4 ± 7.1	2.1 ± 0.5	–	–	–
CCNC(=O)/C(C)=C/[C@@H]1CC[C@@H](C)[C@H]2CCC(C)=C12 [VA-EA]	23.4 ± 6.9	1.3 ± 0.3	–	significantly increased	–
